Results from patent US20250214966A1, “Crystalline Salt Form Of A SHP2 Inhibitor” (Array BioPharma Inc., priority 2022, published 2025).
Like-named read-outs stand apart in the source and are kept apart here.

Experiments:
Type in all cases: physicochemical
[1] = Dynamic vapor sorption of salts (Table 14); conditions: 25° C.; for DVS weight change: ramping 40-90% RH
Procedure: DVS (Table 14): Approximately, 10-20 mg of sample was placed into a mesh vapor sorption balance pan and loaded into a DVS Intrinsic dynamic vapor sorption balance by Surface Measurement Systems. The sample was subjected to a ramping profile from 40-90% relative humidity (RH) at 10% increments, maintaining the sample at each step until a stable weight had been achieved (dm/dt 0.004%, minimum step length 30 minutes, maximum step length 500 minutes) at 25° C. After completion of the sorption cycle, the sample was dried using the same procedure to 0% RH and then a second sorption cycle back to 40% RH. Two cycles were performed. Theweight change during the sorption/desorption cycles were plotted, allowing for the hygroscopic nature of the sample to be determined. XRPD analysis was then carried out on any solid retained. […] The sample was subjected to a ramping profile from 40-90% relative humidity (RH) at 10% increments, maintaining the sample at each step until a stable weight had been achieved (dm/dt 0.004%, minimum step length 30 minutes, maximum step length 500 minutes) at 25° C. After completion of the sorption cycle, the sample was dried using the same procedure to 0% RH and then a second sorption cycle back to 40% RH. Two cycles were performed. The weight change during the sorption/desorption cycles were plotted, allowing for the hygroscopic nature of the sample to be determined. XRPD analysis was then carried out on any solid retained.

[2] = Solubility of salts in buffer systems at 37° C. (Table 14); conditions: 20 mg in 1 mL; for solubility at 18 h: thermodynamic from solid
Procedure: The solubility (Table 14) was determined by adding 20 mg of salts (Examples 3 to 8) into 3 HPLC vials, to each vial, a magnetic stirrer bar was added along with 1 mL of the appropriate buffer system (pH 1.2 HCl, pH 4.5 sodium acetate, or pH 6.8 phosphate). The samples were agitated at 37° C. for […]. After 24 hours, the slurries were isolated by centrifugation filtration and isolated mother liquors were analyzed by HPLC.
HPLC method (Table 14): A Dionex Ultimate 3000 HPLC instrument was used with a Waters XSelect HSS T3 Column (100 angstrom, 4.6×150 mm, 5 μm). The column temperature was set to 20° C., the UV wavelength set to 254 nm, the injection volume was 10 μL, with a flow rate of 1.0 mL/min. 10 mM ammonium acetate adjusted to pH 4.8 was used as a mobile phase A, and acetonitrile was used as mobile phase B. The gradient method was set up to achieve 15% mobile phase B at 0 minutes, 95% mobile phase B at 17 minutes—held until 22 minutes, 15% mobile phase B at 22.1 minutes—held until 28 minutes.

[3] = TGA/DSC of salts (Table 14); conditions: 10° C./min
Procedure: TGA/DSC (Table 14): Approximately, 5-10 mg of material was added into a pre-tared open aluminum pan and loaded into a TA Instruments Discovery SDT 650 Auto—Simultaneous DSC and held at room temperature. The sample was then heated at a rate of 10° C./min from 20° C. (ambient) to 400° C. during which time the change in sample weight was recorded along with the heat flow response (DSC). Nitrogen was used as the sample purge gas, at a flow rate of 200 cm3/min.
DSC (Table 14): Approximately, 1-5 mg of material was weighed into an aluminum DSC pan and sealed nonhermetically with an aluminum lid. The sample pan was then loaded into a TA Instruments Discovery DSC 2500 differential scanning calorimeter equipped with a RC90 cooler. The sample and reference were heated to 310° C. at a scan rate of 10° C./min and the resulting heat flow response monitored. The sample was re-cooled to 20° C. and then reheated again to 205° C. all at 10° C./min. Nitrogen was used as the purge gas, at a flow rate of 50 cm^3/min.

[4] = pH 1.2 HCl buffer, simulated gastric fluid, pH 1.2 HCl, read-out: Solubility pH 1.2 HCl
[5] = pH 4.5 sodium acetate buffer, aqueous buffer, pH 4.5 sodium acetate, read-out: Solubility pH 4.5 Sodium Acetate
[6] = pH 6.8 phosphate buffer, aqueous buffer, pH 6.8 phosphate, read-out: Solubility Ph 6.8 Phosphate

Row | SMILES | DVS hygroscopic nature [1] | DVS weight change [1] [%] | Solubility pH 1.2 HCl (mg/mL) ([2]; pH 1.2 HCl) | Solubility pH 4.5 Sodium Acetate ([2]; pH 4.5 sodium acetate) [mg/mL] | Solubility Ph 6.8 Phosphate ([2]; pH 6.8 phosphate) [mg/mL] | TGA/DSC Melt/degradation [3] [°C] | solubility at 18 h [2, 4] [mg/mL] | solubility at 18 h [2, 5] [mg/mL] | solubility at 18 h [2, 6] [mg/mL]
1 | Nc1nccc(Sc2cnc(N3CCC4(CC3)Cc3ccccc3[C@H]4N)nn2)c1Cl.O=P(O)(O)O [Example 4, (S)-1′-(6-((2-Amino-3-chloropyridin-4-yl)thio)-1,2,4-triazin-3-yl)-1,3-dihydrospiro[indene-2,4′-piperidin]-1-amine phosphate (Pattern 1)] | Hygroscopic | 6.3 | >20 | 0.3 | 9.3 | 100 |  |  | 
2 | Nc1nccc(Sc2cnc(N3CCC4(CC3)Cc3ccccc3[C@H]4N)nn2)c1Cl.O=P(O)(O)O [Example 5, (S)-1′-(6-((2-Amino-3-chloropyridin-4-yl)thio)-1,2,4-triazin-3-yl)-1,3-dihydrospiro[indene-2,4′-piperidin]-1-amine phosphate (Pattern 2)] | Hygroscopic | 7.6 | >20 | 0.4 | 1.9 | 174 |  |  | 
3 | Nc1nccc(Sc2cnc(N3CCC4(CC3)Cc3ccccc3[C@H]4N)nn2)c1Cl.O=C(O)/C=C/C(=O)O [Example 6, (S)-1′-(6-((2-Amino-3-chloropyridin-4-yl)thio)-1,2,4-triazin-3-yl)-1,3-dihydrospiro[indene-2,4′-piperidin]-1-amine fumarate] | Hygroscopic | 2.1 |  |  |  | 225.7 | > 20 | 0.2 | 0.4
4 | Nc1nccc(Sc2cnc(N3CCC4(CC3)Cc3ccccc3[C@H]4N)nn2)c1Cl.O=C(O)C(O)C(O)C(=O)O [Example 7, (S)-1′-(6-((2-Amino-3-chloropyridin-4-yl)thio)-1,2,4-triazin-3-yl)-1,3-dihydrospiro[indene-2,4′-piperidin]-1-amine tartrate] | Hygroscopic | 5.8 |  |  |  | 187 | > 20 | 0.4 | 1.2
